In ChEMBL document CHEMBL1201862, “PubChem BioAssay data set” (2004):
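Grown in 96-well plates, cells were treated for 48 hours with each compound at five concentrations. Insufficient inhibition: endpoint recorded as highest concentration tested. GI50 is the concentration that inhibits growth by half.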 The source made the active and inactive calls. Cut-off read from the data, not from the text of the source: active = GI50 up to about 1.1 µM and inactive = higher.

Experiments:
Test in all cases: growth of human tumour cells (NCI), 48 h
[1] = tested on: A549
[2] = tested on: ACHN
[3] = tested on: HCT-116
[4] = tested on: IGROV-1
[5] = tested on: MOLT-4
[6] = tested on: Malme-3M
[7] = tested on: NCI-H226
[8] = tested on: OVCAR-3
[9] = tested on: OVCAR-5
[10] = tested on: OVCAR-8
[11] = tested on: SF-295
[12] = tested on: SNB-19
[13] = tested on: SR
[14] = tested on: TK-10
[15] = tested on: UACC-257
[16] = tested on: UACC-62
[17] = tested on: UO-31
[18] = tested on: LOX IMVI
[19] = tested on: NCI-H522

| Compound | GI50 [1] | GI50 [2] | GI50 [3] | GI50 [4] | GI50 [5] | GI50 [6] | GI50 [7] | GI50 [8] | GI50 [9] | GI50 [10] | GI50 [11] | GI50 [12] | GI50 [13] | GI50 [14] | GI50 [15] | GI50 [16] | GI50 [17] | GI50 [18] | GI50 [19] |
| --- | --- | --- | --- | --- | --- | --- | --- | --- | --- | --- | --- | --- | --- | --- | --- | --- | --- | --- | --- |
| COc1ccc2c(c1)OCCCN(C)OC2c1ccccc1 (stereo not drawn) | > 100 µM (inactive) | > 100 µM (inactive) | > 100 µM (inactive) | > 100 µM (inactive) | > 100 µM (inactive) | > 100 µM (inactive) | > 100 µM (inactive) | > 100 µM (inactive) | > 100 µM (inactive) | > 100 µM (inactive) | > 100 µM (inactive) | > 100 µM (inactive) | > 100 µM (inactive) | > 100 µM (inactive) | > 100 µM (inactive) | > 100 µM (inactive) | > 100 µM (inactive) |  |  |
| CN(C)CCCNc1ccnc2c([N+](=O)[O-])cccc12 | 28.2 µM (inactive) | 31.1 µM (inactive) | 15.3 µM (inactive) |  | 21.8 µM (inactive) | 2.52 µM (inactive) | > 100 µM (inactive) | 3.56 µM (inactive) | > 10 µM (inactive) | 20.7 µM (inactive) | 20.9 µM (inactive) | 23.4 µM (inactive) | 27.9 µM (inactive) | > 100 µM (inactive) | 15.5 µM (inactive) |  | 38.7 µM (inactive) | 19.5 µM (inactive) | 17.1 µM (inactive) |
| CN(C)CCCCC1CCN(CC(=O)N2c3ccccc3NC(=O)c3ccccc32)CC1 | > 100 µM (inactive) |  | > 100 µM (inactive) |  | > 100 µM (inactive) | > 100 µM (inactive) | > 100 µM (inactive) | > 100 µM (inactive) |  | > 100 µM (inactive) | > 100 µM (inactive) | > 100 µM (inactive) | > 100 µM (inactive) | > 100 µM (inactive) | > 100 µM (inactive) | > 100 µM (inactive) | > 100 µM (inactive) |  | > 100 µM (inactive) |
| C[n+]1c2ccccc2c(/C=N\NS(=O)(=O)c2ccc(O)c(C(=O)O)c2)c2ccccc21 | 23.4 µM (inactive) | 80.2 µM (inactive) | 32.6 µM (inactive) | 58.5 µM (inactive) | 18.5 µM (inactive) | > 100 µM (inactive) | 26.1 µM (inactive) | 49.1 µM (inactive) | > 100 µM (inactive) | 43.7 µM (inactive) | > 100 µM (inactive) | 67.9 µM (inactive) |  | > 100 µM (inactive) | > 10 µM (inactive) | 49.3 µM (inactive) | 29.2 µM (inactive) | 12.9 µM (inactive) | 30.6 µM (inactive) |
| Cc1ccc(C(=O)/C=C/c2cccc([N+](=O)[O-])c2)cc1 | > 100 µM (inactive) | > 100 µM (inactive) | 16.6 µM (inactive) | > 67.9 µM (inactive) | 4.7 µM (inactive) | > 100 µM (inactive) | > 58.7 µM (inactive) | 54.1 µM (inactive) |  | 42.9 µM (inactive) | 55.5 µM (inactive) | 60.1 µM (inactive) | 18.6 µM (inactive) | > 100 µM (inactive) | > 100 µM (inactive) | > 100 µM (inactive) | 46.9 µM (inactive) | 66.4 µM (inactive) | 62.5 µM (inactive) |
| O=C1C2Cc3ccccc3CN2C(=O)N1CCN1CCOCC1 (stereo not drawn) | > 100 µM (inactive) | > 100 µM (inactive) |  | > 100 µM (inactive) | > 100 µM (inactive) | > 100 µM (inactive) | > 100 µM (inactive) | > 100 µM (inactive) | > 100 µM (inactive) | > 100 µM (inactive) | > 100 µM (inactive) | > 100 µM (inactive) | > 100 µM (inactive) | > 100 µM (inactive) |  | > 100 µM (inactive) | > 100 µM (inactive) | > 100 µM (inactive) | > 100 µM (inactive) |
| O=C(c1ccccc1)c1c(-c2ccccc2)sc2nc3ccccc3nc12 | > 100 µM (inactive) | > 100 µM (inactive) | > 100 µM (inactive) | > 100 µM (inactive) | > 100 µM (inactive) | 92.3 µM (inactive) | 20.3 µM (inactive) | > 100 µM (inactive) | > 100 µM (inactive) | > 100 µM (inactive) | 52.7 µM (inactive) | 55 µM (inactive) |  | > 100 µM (inactive) | > 100 µM (inactive) | > 100 µM (inactive) |  |  | > 100 µM (inactive) |
| COc1ccccc1/C=C(\C#N)c1ccccc1 | 37 µM (inactive) | 59.4 µM (inactive) | 29.1 µM (inactive) | 43.3 µM (inactive) | 16.6 µM (inactive) |  | 3.13 µM (inactive) | 19.5 µM (inactive) | > 100 µM (inactive) | 50.5 µM (inactive) | 52.7 µM (inactive) |  | 15.6 µM (inactive) | 40.7 µM (inactive) | 31.1 µM (inactive) | 44.9 µM (inactive) | 28.8 µM (inactive) | 46.9 µM (inactive) | 16.6 µM (inactive) |
| C=CCOC(=O)Cn1ccc(=O)[nH]c1=O | > 100 µM (inactive) | > 100 µM (inactive) | > 100 µM (inactive) | > 100 µM (inactive) | > 100 µM (inactive) | > 100 µM (inactive) | > 100 µM (inactive) |  | > 100 µM (inactive) | > 100 µM (inactive) | > 100 µM (inactive) | > 100 µM (inactive) | > 100 µM (inactive) | > 100 µM (inactive) | > 100 µM (inactive) | > 100 µM (inactive) | > 100 µM (inactive) | > 100 µM (inactive) |  |
| N=C(N)NS(=O)(=O)c1ccc(Nc2c3ccccc3nc3c(C(=O)Nc4ccc(S(N)(=O)=O)cc4)cccc23)cc1 | > 100 µM (inactive) | > 100 µM (inactive) | > 100 µM (inactive) | > 100 µM (inactive) | > 100 µM (inactive) | > 100 µM (inactive) |  | 36.8 µM (inactive) | > 100 µM (inactive) | > 100 µM (inactive) | > 100 µM (inactive) | 37 µM (inactive) |  | > 100 µM (inactive) | > 100 µM (inactive) | 93.3 µM (inactive) | > 100 µM (inactive) | 28.2 µM (inactive) | 15.8 µM (inactive) |
| O=C1/C(=N\O)S(=O)(=O)c2ccccc21 | > 100 µM (inactive) | > 100 µM (inactive) | > 100 µM (inactive) | > 100 µM (inactive) | > 100 µM (inactive) | > 100 µM (inactive) | > 100 µM (inactive) |  | > 100 µM (inactive) | > 100 µM (inactive) | > 100 µM (inactive) | > 100 µM (inactive) | > 100 µM (inactive) | > 100 µM (inactive) | > 100 µM (inactive) | > 100 µM (inactive) | > 100 µM (inactive) | > 100 µM (inactive) | > 100 µM (inactive) |
| N=S(=O)(c1ccccc1)c1ccccc1[N+](=O)[O-] (stereo not drawn) | > 100 µM (inactive) | > 100 µM (inactive) | > 100 µM (inactive) | > 100 µM (inactive) | > 100 µM (inactive) | > 100 µM (inactive) | > 100 µM (inactive) | > 100 µM (inactive) | > 100 µM (inactive) | > 100 µM (inactive) | > 100 µM (inactive) | > 100 µM (inactive) | > 100 µM (inactive) | > 100 µM (inactive) | > 100 µM (inactive) | > 100 µM (inactive) | > 100 µM (inactive) |  | > 100 µM (inactive) |
| N#C/N=C1\NCCC(=O)N1CCc1c[nH]c2ccccc12 | > 100 µM (inactive) |  | > 100 µM (inactive) | > 100 µM (inactive) | > 100 µM (inactive) |  | > 100 µM (inactive) | > 100 µM (inactive) |  | > 100 µM (inactive) | > 100 µM (inactive) | > 100 µM (inactive) | > 100 µM (inactive) | > 100 µM (inactive) | > 100 µM (inactive) | > 100 µM (inactive) | > 100 µM (inactive) | > 100 µM (inactive) |  |
| O=C1c2ccccc2-c2cccc3ccc(Cc4ccccc4)c1c23 | > 100 µM (inactive) | > 100 µM (inactive) | > 100 µM (inactive) | > 100 µM (inactive) | > 100 µM (inactive) | > 100 µM (inactive) |  | > 100 µM (inactive) | > 100 µM (inactive) | > 100 µM (inactive) | > 100 µM (inactive) | > 100 µM (inactive) |  | > 100 µM (inactive) | > 100 µM (inactive) | > 100 µM (inactive) | > 100 µM (inactive) |  | > 100 µM (inactive) |
| CCOc1cc2c(cc1O)/C(=N/NS(=O)(=O)c1ccc(C)cc1)C[C@@H]1[C@@H]2CC[C@]2(C)[C@@H](O)CC[C@@H]12 | 6.46 µM (inactive) | 10.5 µM (inactive) |  | 12.1 µM (inactive) | 1.92 µM (inactive) | 7.43 µM (inactive) | 6.01 µM (inactive) |  | 21 µM (inactive) | 12.4 µM (inactive) | 3.15 µM (inactive) | 8.79 µM (inactive) | 1.04 µM (active) | 51.1 µM (inactive) | 58.2 µM (inactive) |  | 4.2 µM (inactive) | 8.43 µM (inactive) | 3.31 µM (inactive) |
| O=C(c1ccccc1)c1oc2ccc(Br)cc2c1-c1cnn(-c2ccccc2)c1 | > 10 µM (inactive) | > 100 µM (inactive) |  | > 100 µM (inactive) | > 100 µM (inactive) | > 100 µM (inactive) |  | > 100 µM (inactive) | > 100 µM (inactive) | > 10 µM (inactive) | > 100 µM (inactive) | > 100 µM (inactive) |  | > 10 µM (inactive) | > 100 µM (inactive) | > 100 µM (inactive) | > 100 µM (inactive) | > 100 µM (inactive) | 7.48 µM (inactive) |
